Holding throughout (format): in vivo
For one assay, the system named is tobacco seedlings. As to the kind of experiment: Root elongation assay for thiazopyr resistance. As for the experimental part: Root elongation assay for thiazopyr resistance. Transgenic tobacco R1 seeds (line #37432) were sterilized with a 0.25% sodium hypochlorite solution and repeatedly washed with water. Just prior to solidification of agar (~45° C.), stock solutions of thiazopyr in DMSO (1% final concentration) was added; the final concentrations of thiazopyr were 0, 0.05, 0.1, and 0.5 μM. The liquid agar was vortexed and dispensed (3 ml) into glass test tubes. Seeds (~12 per test tube) were placed on the surface of solidified agar and stored in a growth chamber at 25° C. with a 12 hr day and night cycle. Root development and length were monitored visually with time. Control experiments employed untransformed tobacco seeds from the Samson variety.

The test system of assay [1] is tomato. Nature of the assay: Growth chamber assay, pre-emergence application. Conditions: PE. On the procedure:
Growth chamber and greenhouse assay for resistance. Pyridine herbicide resistance in transgenic tomato expressing RLE3 was examined in soil with pre-emergence (PE) applications of thiazopyr. Tomato seeds (R1 of #8255 and #8256, and control UC82B) were planted in 100 cm^2 pots (12 seeds per pot) in artificial METROMIX™ soil at a depth of 0.5 cm. Pots were watered and oversprayed with a 50% acetone/water solution (2 ml) containing thiazopyr at use rates of 0, 34, 67, 140, and 280 g/ha (grams per hectare). Pots were placed in a growth chamber (12 hr photoperiod; 60% humidity, 25° C. night/29° C. day; 600 μE light) with daily watering by subirrigation.

For assay [2], the system named is tomato. As to the kind of experiment: Greenhouse test, pre-plant incorporation (PPI). Particulars: 21 DAT. As for the experimental part: Green house test for tomato resistance. Similar studies were also conducted in greenhouse with pre-plant incorporation (PPI) of thiazopyr into the soil. During pre-emergence application of thiazopyr, it is possible that cracks in soil may allow seedlings to escape from exposure to thiazopyr that was sprayed on the soil surface. One way to prevent such escapes is to apply thiazopyr with pre-plant incorporation (PPI). In this method of application, thiazopyr is first incorporated into the soil and seeds are sowed directly into that soil. PPI application of thiazopyr can cause the most plant injury and therefore require lower rates of thiazopyr application.
Tomato seeds were planted in 100 cm^2 pots filled with a sterilized silty loam soil (510 g). Seeds were placed on top of soil, and covered with additional soil (135 g) which was premixed with thiazopyr at equivalent use rates of 0, 34, 45, 67, and 140 g/ha. Greenhouse growing conditions were: 29° C. day to 21° C. night with supplemental lighting as needed to maintain 200-900 μE.
In order to be certain that tomato resistance to thiazopyr in the above PE experiment was not due to escapes, a further experiment in the greenhouse using conducted using PPI application. Plants were visually rated at 21 days after treatment (DAT) based on comparison of % growth to untreated plants, and the results are presented in the bar chart in FIG. 6. […] At the 45 g/ha rate, UC82B was severely injured (10% growth) and the transgenics lines minimally injured (90% growth). At the 67 g/ha rate, UC82B plants were dead and the transgenics were stunted at 40 to 50% growth. […] Both #8255 and #8230 lines expressed the pyridine-esterase at 0.05% of total protein. The term `resistance` in all of these examples can also be expressed as a recombinantly acquired tolerance to the applied levels or rates of pyridine herbicide.

The structures appear in SMILES notation.

In the case of `COC(=O)c1c(C(F)F)nc(C(F)(F)F)c(C2=NCCS2)c1CC(C)C` [thiazopyr], the inhibition (as a rule, the drop in the measured response relative to a control, in per cent) at 0.1 µM with tobacco seedlings (Nicotiana tabacum, control (Samson) seedlings, 0.1 μM thiazopyr) is about 50%. In addition, in the assay on tobacco seedlings (transgenic line #37432, 0.1 μM thiazopyr), the root length result is recorded as “normal root length”. In addition, in the assay with tobacco seedlings (transgenic line #37432, 0.5 μM thiazopyr), the root inhibition entry is “Root inhibition was observed”. Besides, in the assay on tomato [1] (34 g/ha), the “difference in vegetative growth between UC82B and #8256” value is “no detectable difference in vegetative growth”. Besides, the stunting entry is “about 20%” in the assay with tomato [1] (UC82B control, 67 g/ha) and “none” in the assay with tomato [1] (transgenic #8256, 67 g/ha). Moreover, the growth and survival result in the assay on tomato [1] (UC82B control, 140 g/ha) was “never grew beyond the cotyledon stage and eventually all died”; with tomato [1] (transgenic #8256, 140 g/ha), “numerous healthy seedlings that were stunted but otherwise normal”. In addition, the “resistant seedlings out of 12 to 16 seeds” value with tomato [1] (transgenic R1, 140 and 280 g/ha) was “approximately 4”. Also, the “effect on flower development, fruit set, and seed production” value in the assay with tomato [1] (transgenic plants, 140 and 280 g/ha) is listed as “no effect”. The “% growth compared to untreated plants” value in the assay with tomato [2] (UC82B control, 34 g/ha PPI) is on record as 75%; in the assay with tomato [2] (UC82B control, 45 g/ha PPI) it was 10%; with tomato [2] (transgenic #8255 and #8230, 34 g/ha PPI), 100%; with tomato [2] (transgenic #8255 and #8230, 45 g/ha PPI) it was 90%. Besides, the plant condition entry with tomato [2] (UC82B control, 67 g/ha PPI) is recorded as “dead”.

For the origin of these results see US6107549A, “Genetically engineered plant resistance to thiazopyr and other pyridine herbicides” (Monsanto Company, priority 1999, dated 2000).
